Results: ChEMBL document CHEMBL4715724, “Novel 5-substituted-2-anilinoquinolines with 3-(morpholino or 4-methylpiperazin-1-yl)propoxy moiety as broad spectrum antiproliferative agents: Synthesis, cell based assays and kinase screening” (Bioorg Med Chem Lett, 2016)

Legend:
CCRF-CEM = experiment: cells; format: functional; settings: Homo sapiens, time 48 hrs
Description: Growth inhibition of human CCRF-CEM cells incubated for 48 hrs by sulforhodamine B assay

K562 = experiment: cells; format: functional; settings: Homo sapiens, time 48 hrs
Description: Growth inhibition of human K562 cells incubated for 48 hrs by sulforhodamine B assay

A549 = experiment: cells; format: functional; settings: Homo sapiens, time 48 hrs
Description: Growth inhibition of human A549/ATCC cells incubated for 48 hrs by sulforhodamine B assay

NCI-H23 = experiment: cells; format: functional; settings: Homo sapiens, time 48 hrs
Description: Growth inhibition of human NCI-H23 cells incubated for 48 hrs by sulforhodamine B assay

NCI-H322M = experiment: cells; format: functional; settings: Homo sapiens, time 48 hrs
Description: Growth inhibition of human NCI-H322M cells incubated for 48 hrs by sulforhodamine B assay

HCT-116 = experiment: cells; format: functional; settings: Homo sapiens, time 48 hrs
Description: Growth inhibition of human HCT-116 cells incubated for 48 hrs by sulforhodamine B assay

SF-295 = experiment: cells; format: functional; settings: Homo sapiens, time 48 hrs
Description: Growth inhibition of human SF-295 cells incubated for 48 hrs by sulforhodamine B assay

SK-MEL-28 = experiment: cells; format: functional; settings: Homo sapiens, time 48 hrs
Description: Growth inhibition of human SK-MEL-28 cells incubated for 48 hrs by sulforhodamine B assay

OVCAR-8 = experiment: cells; format: functional; settings: Homo sapiens, time 48 hrs
Description: Growth inhibition of human OVCAR-8 cells incubated for 48 hrs by sulforhodamine B assay

RXF 393 = experiment: cells; format: functional; settings: Homo sapiens, time 48 hrs
Description: Growth inhibition of human RXF 393 cells incubated for 48 hrs by sulforhodamine B assay

TK-10 = experiment: cells; format: functional; settings: Homo sapiens, time 48 hrs
Description: Growth inhibition of human TK-10 cells incubated for 48 hrs by sulforhodamine B assay

PC-3 = experiment: cells; format: functional; settings: Homo sapiens, time 48 hrs
Description: Growth inhibition of human PC-3 cells incubated for 48 hrs by sulforhodamine B assay

MCF7 = experiment: cells; format: functional; settings: Homo sapiens, time 48 hrs
Description: Growth inhibition of human MCF7 cells incubated for 48 hrs by sulforhodamine B assay

[1] = Cytotoxicity against human HFF-1 cells assessed as cell growth inhibition at 10 uM by MTT assay relative to control; format: cell-based; settings: read-out: GI
[2] = Cytotoxicity against human HFF-1 cells assessed as cell growth inhibition by MTT assay; format: cell-based
[3] = target: Tyrosine-protein kinase ABL1 (Homo sapiens) (UniProt P00519); experiment: Inhibition of recombinant N-terminal His6-tagged human ABL (27 to end residues) expressed in baculovirus infected Sf21 insect cells assessed as residual activity at 10 uM relative to control
[4] = system: Tyrosine-protein kinase ABL1 (Homo sapiens), P00519 [T315I]; experiment: Inhibition of recombinant N-terminal His6-tagged human ABL T315I mutant (27 to end residues) expressed in baculovirus infected Sf21 insect cells assessed as residual activity at 10 uM relative to control
[5] = target: Cytoplasmic tyrosine-protein kinase BMX (Homo sapiens) (UniProt P51813); experiment: Inhibition of N-terminal full length His6-tagged human recombinant BMX expressed in Sf21 cells assessed as residual activity at 10 uM relative to control
Sequence of Cytoplasmic tyrosine-protein kinase BMX (Homo sapiens) (P51813 whole entry): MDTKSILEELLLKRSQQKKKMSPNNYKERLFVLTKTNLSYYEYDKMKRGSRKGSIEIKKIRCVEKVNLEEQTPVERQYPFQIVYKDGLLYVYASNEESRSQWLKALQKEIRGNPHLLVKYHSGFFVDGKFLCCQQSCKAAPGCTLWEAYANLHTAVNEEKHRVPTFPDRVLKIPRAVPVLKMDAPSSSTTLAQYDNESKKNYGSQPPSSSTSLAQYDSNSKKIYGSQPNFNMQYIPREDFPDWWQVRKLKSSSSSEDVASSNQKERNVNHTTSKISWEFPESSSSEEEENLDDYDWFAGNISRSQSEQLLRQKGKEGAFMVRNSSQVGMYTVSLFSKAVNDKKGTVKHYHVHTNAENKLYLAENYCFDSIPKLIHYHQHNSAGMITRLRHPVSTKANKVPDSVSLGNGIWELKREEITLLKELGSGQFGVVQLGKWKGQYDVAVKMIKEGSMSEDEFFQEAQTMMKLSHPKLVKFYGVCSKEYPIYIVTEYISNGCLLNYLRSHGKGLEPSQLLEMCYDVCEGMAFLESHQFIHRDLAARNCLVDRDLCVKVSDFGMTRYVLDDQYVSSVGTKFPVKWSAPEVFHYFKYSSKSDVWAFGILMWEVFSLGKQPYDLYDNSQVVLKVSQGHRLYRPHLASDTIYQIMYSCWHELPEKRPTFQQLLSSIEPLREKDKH

[6] = target: Tyrosine-protein kinase BTK (Homo sapiens) (UniProt Q06187); experiment: Inhibition of recombinant full length N-terminal His6-tagged human BTK expressed in baculovirus infected Sf21 cells assessed as residual activity at 10 uM relative to control
Sequence of Tyrosine-protein kinase BTK (Homo sapiens) (Q06187 whole entry, the tested form may be a part): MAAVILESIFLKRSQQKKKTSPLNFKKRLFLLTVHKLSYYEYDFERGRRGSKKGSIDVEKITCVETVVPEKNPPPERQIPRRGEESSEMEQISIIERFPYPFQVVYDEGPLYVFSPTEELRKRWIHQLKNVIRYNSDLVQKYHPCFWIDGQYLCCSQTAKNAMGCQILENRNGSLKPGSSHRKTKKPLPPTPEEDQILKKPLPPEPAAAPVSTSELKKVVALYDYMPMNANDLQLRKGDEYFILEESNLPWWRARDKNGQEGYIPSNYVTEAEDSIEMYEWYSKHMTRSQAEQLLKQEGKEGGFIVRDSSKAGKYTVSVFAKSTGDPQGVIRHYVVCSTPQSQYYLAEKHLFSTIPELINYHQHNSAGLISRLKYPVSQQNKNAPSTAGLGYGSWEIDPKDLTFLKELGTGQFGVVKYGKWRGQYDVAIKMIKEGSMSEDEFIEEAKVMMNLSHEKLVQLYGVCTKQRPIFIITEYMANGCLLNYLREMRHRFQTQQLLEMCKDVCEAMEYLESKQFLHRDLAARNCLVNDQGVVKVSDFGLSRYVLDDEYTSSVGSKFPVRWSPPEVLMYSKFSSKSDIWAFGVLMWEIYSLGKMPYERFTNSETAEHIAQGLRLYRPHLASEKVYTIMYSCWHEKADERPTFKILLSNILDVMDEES

[7] = target: Serine/threonine-protein kinase B-raf (Homo sapiens) (UniProt P15056); experiment: Inhibition of recombinant N-terminal GST-tagged human BRAF (417 to 766 residues) expressed in Sf9 cells assessed as residual activity at 10 uM relative to control
[8] = target: Calcium/calmodulin-dependent protein kinase type II subunit beta (Homo sapiens) (UniProt Q13554); experiment: Inhibition of CaMK2beta (unknown origin) at 10 uM relative to control
Sequence of Calcium/calmodulin-dependent protein kinase type II subunit beta (Homo sapiens) (Q13554 whole entry): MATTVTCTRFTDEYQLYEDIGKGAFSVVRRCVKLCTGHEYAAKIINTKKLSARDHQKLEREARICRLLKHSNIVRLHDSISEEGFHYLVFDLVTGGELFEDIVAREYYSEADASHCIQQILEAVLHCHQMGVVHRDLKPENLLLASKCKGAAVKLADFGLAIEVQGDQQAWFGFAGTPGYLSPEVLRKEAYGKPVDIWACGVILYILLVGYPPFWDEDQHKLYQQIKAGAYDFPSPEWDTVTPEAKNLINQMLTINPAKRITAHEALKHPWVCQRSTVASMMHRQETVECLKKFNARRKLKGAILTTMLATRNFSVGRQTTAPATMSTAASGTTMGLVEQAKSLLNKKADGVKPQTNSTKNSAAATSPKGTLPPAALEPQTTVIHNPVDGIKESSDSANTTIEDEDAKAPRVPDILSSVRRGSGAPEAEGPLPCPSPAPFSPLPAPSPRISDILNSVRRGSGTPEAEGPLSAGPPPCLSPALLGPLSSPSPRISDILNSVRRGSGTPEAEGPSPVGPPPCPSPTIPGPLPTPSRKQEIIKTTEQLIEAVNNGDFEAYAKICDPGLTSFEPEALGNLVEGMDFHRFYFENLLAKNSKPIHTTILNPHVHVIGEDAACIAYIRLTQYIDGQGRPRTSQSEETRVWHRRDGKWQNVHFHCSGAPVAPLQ

[9] = target: CDK3/Cyclin E (Homo sapiens) (UniProt P24864+Q00526); experiment: Inhibition of full length C-terminal His6-tagged human CDK3/full length N-terminal GST-tagged human Cyclin E expressed in baculovirus infected Sf21 insect cells assessed as residual activity at 10 uM relative to control
[10] = target: Epidermal growth factor receptor (Homo sapiens) (UniProt P00533); experiment: Inhibition of N-terminal GST-tagged human EGFR (696 to end residues) expressed in baculovirus-infected Sf21 cells assessed as residual activity at 10 uM relative to control
[11] = target: Fibroblast growth factor receptor 1 (Homo sapiens) (UniProt P11362); experiment: Inhibition of human FGFR1 assessed as residual activity at 10 uM relative to control
[12] = target: Receptor-type tyrosine-protein kinase FLT3 (Homo sapiens) (UniProt P36888); experiment: Inhibition of human FLT3 assessed as residual activity at 10 uM relative to control
[13] = target: Macrophage colony-stimulating factor 1 receptor (Homo sapiens) (UniProt P07333); experiment: Inhibition of recombinant N-terminal His6-tagged human FMS (538 to end residues) expressed in baculovirus infected Sf21 insect cells assessed as residual activity at 10 uM relative to control
[14] = target: Insulin-like growth factor 1 receptor (Homo sapiens) (UniProt P08069); experiment: Inhibition of human IGF1R assessed as residual activity at 10 uM relative to control
Sequence of Insulin-like growth factor 1 receptor (Homo sapiens) (P08069 31-736 limits assumed): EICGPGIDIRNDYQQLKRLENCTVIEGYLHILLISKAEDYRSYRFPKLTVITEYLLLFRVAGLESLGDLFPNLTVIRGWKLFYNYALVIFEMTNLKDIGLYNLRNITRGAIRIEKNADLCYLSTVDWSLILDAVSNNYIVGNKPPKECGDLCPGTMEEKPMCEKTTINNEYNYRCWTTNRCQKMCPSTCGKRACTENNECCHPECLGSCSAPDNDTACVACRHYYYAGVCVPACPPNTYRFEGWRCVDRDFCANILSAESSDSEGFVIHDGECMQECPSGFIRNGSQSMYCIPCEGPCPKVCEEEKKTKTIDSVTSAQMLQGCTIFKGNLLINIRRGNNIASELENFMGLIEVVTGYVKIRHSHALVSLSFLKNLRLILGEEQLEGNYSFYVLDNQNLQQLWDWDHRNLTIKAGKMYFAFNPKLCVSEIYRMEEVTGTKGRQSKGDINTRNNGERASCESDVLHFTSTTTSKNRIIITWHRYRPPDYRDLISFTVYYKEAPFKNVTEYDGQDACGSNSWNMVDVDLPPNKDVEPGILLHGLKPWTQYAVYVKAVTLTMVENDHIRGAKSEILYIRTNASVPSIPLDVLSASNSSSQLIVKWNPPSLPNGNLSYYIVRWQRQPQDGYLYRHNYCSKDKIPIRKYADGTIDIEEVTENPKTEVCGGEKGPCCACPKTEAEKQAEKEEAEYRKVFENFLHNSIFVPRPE
Sequence of Insulin-like growth factor 1 receptor (Homo sapiens) (P08069 741-1367 limits assumed): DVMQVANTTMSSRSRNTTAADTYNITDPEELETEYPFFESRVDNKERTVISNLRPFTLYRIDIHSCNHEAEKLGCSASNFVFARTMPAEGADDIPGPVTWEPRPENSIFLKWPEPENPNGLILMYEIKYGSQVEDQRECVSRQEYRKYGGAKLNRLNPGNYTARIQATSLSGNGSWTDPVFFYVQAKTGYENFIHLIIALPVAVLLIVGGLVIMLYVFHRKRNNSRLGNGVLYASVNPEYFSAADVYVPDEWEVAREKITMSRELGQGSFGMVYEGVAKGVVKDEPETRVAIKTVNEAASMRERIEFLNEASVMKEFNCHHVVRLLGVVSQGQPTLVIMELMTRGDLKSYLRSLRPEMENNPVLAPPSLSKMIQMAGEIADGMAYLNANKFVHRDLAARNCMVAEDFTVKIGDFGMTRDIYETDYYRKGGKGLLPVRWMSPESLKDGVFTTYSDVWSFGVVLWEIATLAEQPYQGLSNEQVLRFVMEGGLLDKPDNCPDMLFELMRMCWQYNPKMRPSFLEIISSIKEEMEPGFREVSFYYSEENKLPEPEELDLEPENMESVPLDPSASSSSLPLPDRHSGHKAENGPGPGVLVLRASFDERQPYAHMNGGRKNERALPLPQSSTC

[15] = target: Vascular endothelial growth factor receptor 2 (Homo sapiens) (UniProt P35968); experiment: Inhibition of N-terminal His6-tagged recombinant human KDR (790 to end residues) expressed in baculovirus infected Sf21 cells at 10 uM relative to control
[16] = target: Mitogen-activated protein kinase 1 (Homo sapiens) (UniProt P28482); experiment: Inhibition of recombinant full length N-terminal GST-tagged human MAPK1 expressed in Escherichia coli at 10 uM relative to control
Sequence of Mitogen-activated protein kinase 1 (Homo sapiens) (P28482 whole entry): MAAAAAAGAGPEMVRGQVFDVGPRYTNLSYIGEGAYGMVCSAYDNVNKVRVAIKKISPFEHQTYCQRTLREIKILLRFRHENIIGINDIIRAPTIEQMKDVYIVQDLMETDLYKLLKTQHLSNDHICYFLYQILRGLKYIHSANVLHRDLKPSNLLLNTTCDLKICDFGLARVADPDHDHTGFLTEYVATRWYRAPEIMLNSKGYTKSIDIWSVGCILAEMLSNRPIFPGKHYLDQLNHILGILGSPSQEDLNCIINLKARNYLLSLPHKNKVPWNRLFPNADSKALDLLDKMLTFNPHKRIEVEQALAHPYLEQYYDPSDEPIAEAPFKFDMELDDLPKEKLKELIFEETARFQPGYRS

[17] = target: Mitogen-activated protein kinase 1 (Homo sapiens) (UniProt P28482); experiment: Inhibition of recombinant full length N-terminal GST-tagged human MAPK2 expressed in Escherichia coli at 10 uM relative to control
[18] = target: MAP kinase-activated protein kinase 2 (Homo sapiens) (UniProt P49137); experiment: Inhibition of human MAPKAPK2 expressed in Escherichia coli at 10 uM relative to control
Sequence of MAP kinase-activated protein kinase 2 (Homo sapiens) (P49137 whole entry, looked up): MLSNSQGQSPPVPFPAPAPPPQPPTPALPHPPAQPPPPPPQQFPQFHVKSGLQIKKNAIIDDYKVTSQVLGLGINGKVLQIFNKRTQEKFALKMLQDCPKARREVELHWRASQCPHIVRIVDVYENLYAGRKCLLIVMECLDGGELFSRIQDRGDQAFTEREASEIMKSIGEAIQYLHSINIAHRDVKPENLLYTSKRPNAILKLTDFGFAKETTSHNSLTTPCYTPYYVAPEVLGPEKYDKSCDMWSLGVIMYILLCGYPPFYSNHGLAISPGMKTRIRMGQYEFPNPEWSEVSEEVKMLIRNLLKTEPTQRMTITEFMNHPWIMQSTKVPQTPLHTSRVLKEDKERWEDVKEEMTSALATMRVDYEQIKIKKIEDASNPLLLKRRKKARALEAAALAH

[19] = target: Hepatocyte growth factor receptor (Homo sapiens) (UniProt P08581); experiment: Inhibition of recombinant N-terminal His6-tagged human MET (974 to end residues) expressed in baculovirus infected Sf21 insect cells at 10 uM relative to control
[20] = target: Serine/threonine-protein kinase 3 (Homo sapiens) (UniProt Q13188); experiment: Inhibition of recombinant N-terminal His6-tagged human MST2 (2 to end residues) expressed in baculovirus infected Sf21 insect cells at 10 uM relative to control
Sequence of Serine/threonine-protein kinase 3 (Homo sapiens) (Q13188 whole entry): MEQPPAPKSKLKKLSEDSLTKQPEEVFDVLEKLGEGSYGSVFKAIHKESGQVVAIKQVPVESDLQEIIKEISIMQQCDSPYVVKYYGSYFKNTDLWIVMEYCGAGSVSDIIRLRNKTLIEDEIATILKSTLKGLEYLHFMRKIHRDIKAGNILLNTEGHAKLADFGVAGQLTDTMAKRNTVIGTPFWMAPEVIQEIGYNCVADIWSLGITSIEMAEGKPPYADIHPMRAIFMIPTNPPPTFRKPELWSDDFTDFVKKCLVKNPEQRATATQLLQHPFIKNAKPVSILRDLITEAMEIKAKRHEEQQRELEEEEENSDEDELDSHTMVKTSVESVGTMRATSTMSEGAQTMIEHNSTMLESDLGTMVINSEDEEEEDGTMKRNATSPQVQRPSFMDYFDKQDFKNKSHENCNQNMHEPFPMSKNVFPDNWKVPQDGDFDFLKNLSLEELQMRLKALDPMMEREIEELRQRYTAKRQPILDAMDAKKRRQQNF

[21] = target: Angiopoietin-1 receptor (Homo sapiens) (UniProt Q02763); experiment: Inhibition of recombinant N-terminal His6-tagged human Tie2 (771 to end residues) expressed in baculovirus infected Sf21 insect cells at 10 uM relative to control
[22] = system: Panel leukemia (Carcinoma cell lines); experiment: cells; format: functional; settings: Homo sapiens, time 48 hrs
Description: Growth inhibition of human Panel leukemia (Carcinoma cell lines) incubated for 48 hrs by sulforhodamine B assay

cells = format: functional; settings: Homo sapiens, Non-small cell lung cancer cell line; time 48 hrs
Description: Growth inhibition of human Non-small cell lung cancer cell line incubated for 48 hrs by sulforhodamine B assay

[23] = system: Panel prostate (Carcinoma cell lines); experiment: cells; format: functional; settings: Homo sapiens, time 48 hrs
Description: Growth inhibition of human Panel prostate (Carcinoma cell lines) incubated for 48 hrs by sulforhodamine B assay

[24] = system: Panel breast (Carcinoma cell lines); experiment: cells; format: functional; settings: Homo sapiens, time 48 hrs
Description: Growth inhibition of human Panel breast (Carcinoma cell lines) incubated for 48 hrs by sulforhodamine B assay

[25] = system: Panel NCI-60 (60 carcinoma cell lines); experiment: cells; format: functional; settings: Homo sapiens, time 48 hrs
Description: Growth inhibition of human Panel NCI-60 (60 carcinoma cell lines) incubated for 48 hrs by sulforhodamine B assay

[26] = read-out: LC50 (the source's name)

Question: For `CN1CCN(CCCOc2cccc3nc(Nc4ccc(Cl)c(C(F)(F)F)c4)ccc23)CC1`, which GI50 (CCRF-CEM) is on record?
Answer: 1210 nM

Question: And the GI50 (K562)?
Answer: 1620 nM

Question: And the GI50 (A549)?
Answer: 1720 nM

Question: What about the GI50 (NCI-H23) of the same compound?
Answer: 1780 nM

Question: What about the GI50 (NCI-H322M) of the same compound?
Answer: 1440 nM

Question: What about the GI50 (HCT-116) of the same compound?
Answer: 1500 nM

Question: And the GI50 (SF-295)?
Answer: 1800 nM

Question: What about the GI50 (SK-MEL-28) of the same compound?
Answer: 1390 nM

Question: And the GI50 (OVCAR-8)?
Answer: 1920 nM

Question: And the GI50 (RXF 393)?
Answer: 1630 nM

Question: And the GI50 (TK-10)?
Answer: 1800 nM

Question: And the GI50 (PC-3)?
Answer: 1570 nM

Question: And the GI50 (MCF7)?
Answer: 1410 nM

Question: What about the inhibition at 10 µM [1] of the same compound?
Answer: 37.1%

Question: And the GI50 [2]?
Answer: > 10000 nM

Question: What about the Activity [3] of the same compound?
Answer: < 60%

Question: And the Activity [4]?
Answer: < 60%

Question: What about the Activity [5] of the same compound?
Answer: < 60%

Question: What about the Activity [6] of the same compound?
Answer: < 60%

Question: What about the Activity [7] of the same compound?
Answer: < 60%

Question: What about the inhibition [8] of the same compound?
Answer: < 60%

Question: What about the Activity [9] of the same compound?
Answer: < 60%

Question: What about the Activity [10] of the same compound?
Answer: < 60%

Question: And the Activity [11]?
Answer: < 60%

Question: What about the Activity [12] of the same compound?
Answer: 66%

Question: And the Activity [13]?
Answer: < 60%

Question: What about the Activity [14] of the same compound?
Answer: < 60%

Question: What about the inhibition [15] of the same compound?
Answer: < 60%

Question: What about the inhibition [16] of the same compound?
Answer: < 60%

Question: And the inhibition [17]?
Answer: < 60%

Question: And the inhibition [18]?
Answer: < 60%

Question: What about the inhibition [19] of the same compound?
Answer: < 60%

Question: What about the inhibition [20] of the same compound?
Answer: < 60%

Question: And the inhibition [21]?
Answer: < 60%

Question: What about the GI50 [22] of the same compound?
Answer: 1380 nM

Question: What about the LC50 (50% lethal concentration) [22] of the same compound?
Answer: 7780 nM

Question: What about the TGI [22] of the same compound?
Answer: 3480 nM

Question: What about the GI50 (cells) of the same compound?
Answer: 1680 nM

Question: What about the LC50 (50% lethal concentration) (cells) of the same compound?
Answer: 10100 nM

Question: And the TGI (cells)?
Answer: 3660 nM

Question: What about the GI50 [23] of the same compound?
Answer: 1690 nM

Question: And the LC50 (concentration killing 50% of cells) [23]?
Answer: 5880 nM

Question: And the TGI [23]?
Answer: 3150 nM

Question: And the GI50 [24]?
Answer: 1690 nM

Question: And the TGI [24]?
Answer: 3630 nM

Question: And the CC50 [24, 26]?
Answer: 11200 nM

Question: What about the GI50 [25] of the same compound?
Answer: 1620 nM

Question: And the TGI [25]?
Answer: 3470 nM

Question: And the CC50 [25, 26]?
Answer: 8130 nM
